Reference: article PMC9367001 (Journal of Chemical Theory and Computation, 2022)

Molecular target: IN05 HA trimer
Format: binding, influenza A/Indonesia/5/2005 (H5 subtype)

α2,6-linked sialyl lactosamine [6-SLN]
KD,MST: no detectable binding
